Measurements reported in article PMC10077475, “DG9-conjugated morpholino rescues phenotype in SMA mice by reaching the CNS via a subcutaneous administration” (JCI Insight, 2023).

How the values were obtained:
[1] = system: neuromuscular junctions of SMA mice; assay: NMJ staining, innervation of quadriceps and intercostal muscles; assay type: in vivo, mouse; details: 40 mg/kg s.c. at PD0, quadriceps and intercostal muscles at PD30, 300–500 NMJs per group
Excerpt: We assessed the NMJ architecture of the quadriceps and the intercostal muscles at PD30 to understand the phenotypic rescue following injections at PD0 (Figure 5A). […] Although there was no statistical significance, we observed upregulation of both atrogenes in the unconjugated PMO–treated mice and upregulation of only Atrogin-1 in MOE-treated mice in the quadriceps muscle at approximately PD30. […] We also evaluated the expressions of muscle specific kinase (MuSK) and acetylcholine receptor alpha (AChRα), which play a crucial role in NMJ formation and maintenance ([46]–[50]). […] The findings corroborate our hypothesis that DG9-PMO treatment rescues the crosstalk between the muscle and the neurons by improving muscle pathology and the characteristics of NMJs.
NMJ staining was carried out as previously described ([71]). Briefly, the quadriceps and the intercostal muscle were fixed in 4 % paraformaldehyde (PFA) for 2 hours. The muscles were washed quickly with PBS and blocked with 5% goat serum and 2 % Triton-X in PBS for 1 hour at RT. This was followed by overnight incubation at 4°C with the primary mouse monoclonal antibodies anti-neurofilament clone 2H3 (1:100) and […] (1:500) (DSHB). […] The synaptic area was quantified using ImageJ. […]

severe SMA mouse model [2] = assay: Whole-body plethysmography, breathing function at PD7; assay type: in vivo; details: for respiratory parameters under hypoxia (11% O2): 40 mg/kg s.c. at PD0, PD7
Excerpt: The majority of patients with SMA suffer from compromised breathing functions and rely on an external source of breathing support. To evaluate the effects of DG9-PMO treatment on breathing function, we performed whole-body plethysmography recordings at PD7 under normoxic (21% O2) and hypoxic (11% O2) conditions (Figure 3A). […] The NT mice on the other hand had slow, irregular breathing denoted by a higher coefficient of variation of frequency (CV, a measure of relative variability) and marked apneas (absence of airflow/pressure changes for a period equivalent to or greater than 2 complete respiratory cycles) (Figure 3, B and F).
Measurements were performed in whole-body, cylindrical, transparent, plexiglass plethysmographs (Validyne Engineering) that had 1 inflow and 2 outflow ports for the continuous delivery of fresh room air and removal of expired carbon dioxide ([75], [76]). […] The gas was mixed with gas mixer (GSM-3, CWE), delivered from compressed pure oxygen and pure nitrogen cannisters, being monitored using 0–200 mL/min gas regulators (Porter Instrument Company). […] For PD30, the plethysmograph was recorded at RT of around 22°C. Pressure changes were detected with a pressure transducer (DP 103; Validyne) and signal conditioner (CD-15; Validyne), recorded with data acquisition software (Axoscope) via analog-digital board (Digidata 1322A). […] VT and fR were measured with blood pressure settings using Labchart 8 (ADInstruments). Threshold levels for bursts were set, and bursts were then automatically detected so that frequency (calculated from cycle duration) and VT (calculated from maximal pressure minus minimal pressure) values were interpreted. […]
Respiratory parameters were calculated over an average of 1 minute of continuous plethysmography recordings. […]

severe SMA mouse model [3] = assay: Muscle pathology by H&E staining (myofiber size, centrally nucleated fibers); assay type: in vivo
Excerpt: Atrophic musculature is a classical characteristic feature of SMA with diminished skeletal muscle fiber size. To determine the treatment effects on muscle pathology, we assessed the physiology and architecture of the myofibers of 2 affected muscle groups, the quadriceps and intercostal muscles, as well as the sparingly affected diaphragm at PD7 and PD30 ([42], [43]). We quantified the cross-sectional area (CSA), the minimal Feret’s diameter, and centrally nucleated fibers, a hallmark of pathological muscle degeneration/regeneration cycle, for at least 500 myofibers per muscle for each treatment using hematoxylin and eosin (H&E) staining at PD7 and PD30 (Figure 4, A and B, and Supplemental Figures 5 and 6). […] The effect of DG9-PMO persisted at PD30 (Supplemental Figure 6).
Cryosections (7 μm) of the quadriceps muscle, diaphragm, and intercostal muscle were stained with Meyer’s H&E reagents (Electron Microscopy Reagents) ([70]). For the centrally nucleated fibers and myofiber size, 500–800 were randomly selected per muscle per treatment. The CSA and minimal Feret’s diameter were quantified using ImageJ (NIH). All H&E analyses were performed in a blinded fashion.

Molecule | full innervation of peripheral synapses (NMJs) [1] | respiratory parameters under hypoxia (11% O2) (severe SMA mouse model [2]) | respiratory phenotype under normoxic conditions (21% O2) (severe SMA mouse model [2]; 40 mg/kg s.c. at PD0, PD7, majority of the mice) | centrally nucleated fibers (severe SMA mouse model [3]; 40 mg/kg s.c. at PD0, PD7) | Feret's diameter and CSA of myofibers at PD7 compared with NT control (severe SMA mouse model [3]; 40 mg/kg s.c. at PD0, quadriceps, diaphragm, intercostal muscle) | myofiber size at PD30 compared with DG9-PMO (severe SMA mouse model [3]; 40 mg/kg s.c. at PD0, all 3 tissue types)
CC(=O)N[C@@H](Cc1ccc(O)cc1)C(=O)N[C@@H](C)C(=O)N[C@H](CCCNC(=N)N)C(=O)N[C@H](C(=O)N[C@@H](CCCNC(=N)N)C(=O)N[C@@H](CCCNC(=N)N)C(=O)N[C@H](CCCNC(=N)N)C(=O)NCC(=O)N1CCC[C@H]1C(=O)N[C@@H](CCCNC(=N)N)C(=O)NCC(=O)N[C@@H](Cc1ccc(O)cc1)C(=O)N[C@@H](C)C(=O)N[C@H](CCCNC(=N)N)C(=O)N[C@H](C(=O)N[C@@H](CCCNC(=N)N)C(=O)N[C@@H](CCCNC(=N)N)C(=O)N[C@H](CCCNC(=N)N)C(=O)NCC(=O)N1CCC[C@H]1C(=O)N[C@@H](CCCNC(=N)N)C(=O)N[C@H](CCCNC(=N)N)C(=O)N1C[C@@H](COP(=O)(N(C)C)N2C[C@@H](COP(=O)(N(C)C)N3C[C@@H](COP(=O)(N(C)C)N4C[C@@H](COP(=O)(N(C)C)N5C[C@@H](COP(=O)(N(C)C)N6C[C@@H](COP(=O)(N(C)C)N7C[C@@H](COP(=O)(N(C)C)N8C[C@@H](COP(=O)(N(C)C)N9C[C@@H](COP(=O)(N(C)C)N%10C[C@@H](COP(=O)(N(C)C)N%11C[C@@H](COP(=O)(N(C)C)N%12C[C@@H](COP(=O)(N(C)C)N%13C[C@@H](COP(=O)(N(C)C)N%14C[C@@H](COP(=O)(N(C)C)N%15C[C@@H](COP(=O)(N(C)C)N%16C[C@@H](COP(=O)(N(C)C)N%17C[C@@H](COP(=O)(N(C)C)N%18C[C@@H](COP(=O)(N(C)C)N%19CCC(C(N)=O)CC%19)O[C@@H](n%19cc(C)c(=O)[nH]c%19=O)C%18)O[C@@H](n%18ccc(N)nc%18=O)C%17)O[C@@H](n%17cnc%18c(N)ncnc%18%17)C%16)O[C@@H](n%16ccc(N)nc%16=O)C%15)O[C@@H](n%15cc(C)c(=O)[nH]c%15=O)C%14)O[C@@H](n%14cc(C)c(=O)[nH]c%14=O)C%13)O[C@@H](n%13cc(C)c(=O)[nH]c%13=O)C%12)O[C@@H](n%12ccc(N)nc%12=O)C%11)O[C@@H](n%11cnc%12c(N)ncnc%12%11)C%10)O[C@@H](n%10cc(C)c(=O)[nH]c%10=O)C9)O[C@@H](n9cnc%10c(N)ncnc%109)C8)O[C@@H](n8cnc9c(N)ncnc98)C7)O[C@@H](n7cc(C)c(=O)[nH]c7=O)C6)O[C@@H](n6cnc7c(=O)[nH]c(N)nc76)C5)O[C@@H](n5ccc(N)nc5=O)C4)O[C@@H](n4cc(C)c(=O)[nH]c4=O)C3)O[C@@H](n3cnc4c(=O)[nH]c(N)nc43)C2)O[C@@H](n2cnc3c(=O)[nH]c(N)nc32)C1)C(C)C)C(C)C (some centres unmarked) [DG9-PMO] | more than 60% | increase in the respiratory parameters fR, VE, and VT relative to normoxia | did not exhibit any respiratory phenotype | significant decrease in the percentage of centrally nucleated fibers | significantly larger in all 3 muscle groups | –
unconjugated PMO: PMO targeting ISS-N1 intron 7 (5′ TCACTTTCATAATGCTGG 3′), purchased from Gene Tools LLC (all phosphorodiamidate morpholino (PMO)) [reference compound] | 40%–50% | slow, weak, and irregular breathing when compared with the Hets | – | – | – | significantly smaller myofibers
